pIC50: −log10 of the molar value. Calls of active or inactive are those of the source. The rule behind the calls is not given here.
Columns and labels:
Homo sapiens = organism: Homo sapiens; assay: Inhibition of alpha-Glucosidase (unknown origin) at 10 uM using pNPG as substrate incubated for 30 mins relative to control
[1] = molecular target: T1, Tyrosine-protein phosphatase non-receptor type 1 (Homo sapiens) (UniProt P18031); assay: Inhibition of recombinant human PTP1B (1 to 321 residues) expressed in Escherichia coli at 10 uM using p-nitrophenyl phosphate as substrate incubated for 30 mins relative to control
T1 sequence (whole entry): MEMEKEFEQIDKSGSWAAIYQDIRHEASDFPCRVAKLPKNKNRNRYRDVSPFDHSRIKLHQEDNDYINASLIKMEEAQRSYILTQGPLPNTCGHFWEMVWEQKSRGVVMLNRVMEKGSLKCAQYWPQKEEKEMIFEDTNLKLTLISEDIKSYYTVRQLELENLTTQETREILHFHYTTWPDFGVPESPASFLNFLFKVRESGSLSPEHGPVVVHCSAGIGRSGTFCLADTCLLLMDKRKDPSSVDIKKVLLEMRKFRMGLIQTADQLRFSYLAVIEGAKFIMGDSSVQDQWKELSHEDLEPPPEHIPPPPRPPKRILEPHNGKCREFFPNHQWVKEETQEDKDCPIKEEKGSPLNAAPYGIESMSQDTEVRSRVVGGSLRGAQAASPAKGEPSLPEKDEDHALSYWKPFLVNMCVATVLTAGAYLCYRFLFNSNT

[2] = Cytotoxicity against human insulin resistant HepG2 cells assessed as cell viability at 10 uM by CCK8 assay relative to control; type: cell-based; conditions: read-out: Activity
[3] = Inhibition of alpha-Glucosidase (unknown origin) using pNPG as substrate incubated for 30 mins; design: species or system Homo sapiens
[4] = molecular target: T2, Tyrosine-protein phosphatase non-receptor type 1 (Homo sapiens, UniProt P18031); assay: Inhibition of recombinant human PTP1B (1 to 321 residues) expressed in Escherichia coli using p-nitrophenyl phosphate as substrate incubated for 30 mins
T2 sequence (P18031 whole entry): T1 sequence (whole entry)

HepG2 [5] = assay: Induction of glucose uptake in human insulin resistant HepG2 cells at 10 uM incubated for 24 hrs by GOD-POD method relative to control; type: functional
HepG2 [6] = assay: Induction of glucose uptake in human insulin resistant HepG2 cells at 500 uM incubated for 24 hrs by GOD-POD method relative to control; type: functional, cell-based

With `CC1(C)C=Cc2cc(/C=C/C(=O)c3ccc(O)cc3O)ccc2O1` the inhibition (Homo sapiens) was > 40%, the inhibition [1] was > 60% and the viability at 10 µM [2] was 80 to 110%.
With `CC(C)=CCc1c(O)ccc(-c2cc3ccc(O)cc3o2)c1O` [2'-O-DEMETHYLBIDWILLOL B] the inhibition (Homo sapiens) was 61.7%, the inhibition [1] was > 60% and the pIC50 [3] was 5.07. It also gave a pIC50 [4] of 5.04 and a viability at 10 µM [2] of 80 to 110%.
For `O=C(/C=C/c1ccc(O)cc1)c1ccc(O)cc1O` [ISOLIQUIRITIGENIN], the inhibition (Homo sapiens) was > 40%, the inhibition [1] was > 60% and the pIC50 [3] was 5.25. It also gave a viability at 10 µM [2] of 80 to 110%.
In the case of `COc1c(CC=C(C)C)c(O)cc2c1C[C@H](c1ccc(O)c(CC=C(C)C)c1O)CO2` [LICORICIDIN], the pIC50 [4] was 5.23.
In the case of `COc1ccc(-c2coc3cc(O)cc(O)c3c2=O)cc1` [BIOCHANIN], the inhibition (Homo sapiens) was > 40%, the inhibition [1] was > 60% and the pIC50 [3] was 5.42. It also gave a viability at 10 µM [2] of 80 to 110%.
For `COc1cc2c(c(O)c1CC=C(C)C)C(=O)C(c1ccc(O)c(CC=C(C)C)c1O)CO2` (stereo not given), the inhibition (Homo sapiens) was > 40%, the inhibition [1] was > 60% and the pIC50 [4] was 5.37. It also gave a viability at 10 µM [2] of 80 to 110%.
For `CC1(C)C=Cc2c(ccc([C@@H]3COc4cc(O)cc(O)c4C3=O)c2O)O1`, the inhibition (Homo sapiens) was > 40%, the inhibition [1] was > 60% and the viability at 10 µM [2] was 80 to 110%.
In the case of `COc1cc(O)ccc1/C=C/C(=O)c1ccc(O)cc1` [ECHINATIN], the inhibition (Homo sapiens) was > 40%, the inhibition [1] was > 60% and the viability at 10 µM [2] was 80 to 110%.
With `CC1(C)C=Cc2cc(-c3coc4cc(O)cc(O)c4c3=O)ccc2O1` the inhibition (Homo sapiens) was > 40%, the inhibition [1] was > 60% and the viability at 10 µM [2] was 80 to 110%.
For `CC1(C)C=Cc2cc(-c3coc4cc(O)cc(O)c4c3=O)cc(O)c2O1`, the inhibition (Homo sapiens) was > 40%, the inhibition [1] was > 60% and the viability at 10 µM [2] was 80 to 110%.
`CC(C)=CCc1c(O)c(CC=C(C)C)c2occ(-c3ccc(O)cc3)c(=O)c2c1O` showed a pIC50 [3] of 4.79 and a pIC50 [4] of 5.64.
With `O=c1c(O)c(-c2ccc(O)cc2)oc2cc(O)cc(O)c12` [KAEMPFEROL] the inhibition (Homo sapiens) was > 40%, the Activity (HepG2 [5]) was >80% and the inhibition [1] was > 60%. It also gave a viability at 10 µM [2] of 80 to 110%.
In the case of `CC(C)=CCc1cc([C@@H]2COc3cc(O)c(CC=C(C)C)c(O)c3C2=O)ccc1O`, the inhibition (Homo sapiens) was > 40%.
With `CC(C)=CCc1c(O)ccc(-c2coc3cc(O)cc(O)c3c2=O)c1O` the inhibition (Homo sapiens) was 20.1%, the inhibition [1] was > 60% and the viability at 10 µM [2] was 80 to 110%.
With `COc1cc2c(c(OC)c1CC=C(C)C)C[C@H](c1ccc(O)c(CC=C(C)C)c1O)CO2` the inhibition (Homo sapiens) was > 40%, the inhibition [1] was > 60% and the viability at 10 µM [2] was 80 to 110%.
For `CC(C)=CCc1c(O)ccc(C2COc3cc(O)c(CC=C(C)C)c(O)c3C2=O)c1O` (stereo not given), the inhibition (Homo sapiens) was > 40%, the inhibition [1] was > 60% and the viability at 10 µM [2] was 80 to 110%.
With `CC(C)=CCc1c(O)ccc([C@@]2(O)COc3cc(O)c(CC=C(C)C)c(O)c3C2=O)c1O` the inhibition (Homo sapiens) was > 40%, the inhibition [1] was > 60% and the viability at 10 µM [2] was 80 to 110%.
In the case of `COc1cc2c(c(OC)c1CC=C(C)C)C[C@H](c1ccc(O)cc1O)CO2` [GLYASPERIN D], the inhibition (Homo sapiens) was > 40%, the inhibition [1] was > 60% and the viability at 10 µM [2] was 80 to 110%.
In the case of `COc1cc(O)ccc1-c1cc2c(OC)c(CC=C(C)C)c(O)cc2o1`, the inhibition (Homo sapiens) was > 40%, the inhibition [1] was > 60% and the pIC50 [4] was 5.28. For the same compound, the viability at 10 µM [2] was 80 to 110%.
For `COc1c(CC=C(C)C)c(O)cc2oc(=O)c(-c3ccc(O)cc3O)cc12` [GLYCYCOUMARIN], the inhibition (Homo sapiens) was > 40%, the inhibition [1] was > 60% and the pIC50 [3] was 7.00. The viability at 10 µM [2] was 80 to 110%.
For `COc1c(CC=C(C)C)c(O)cc2c1[C@@H]1Oc3cc(O)c(CC=C(C)C)cc3[C@@H]1CO2`, the pIC50 [4] was 5.36.
With `COc1c(-c2ccc(O)cc2)oc2cc(O)c(CC=C(C)C)c(O)c2c1=O` the pIC50 [4] was 5.35.
Compound `C[C@H]1O[C@H](O[C@H]2[C@H](O)[C@@H](O)[C@@H](O[C@H]3[C@H](O)[C@@H](O)C(O)O[C@@H]3CO)O[C@@H]2CO)[C@H](O)[C@@H](O)[C@@H]1N[C@H]1C=C(CO)[C@@H](O)[C@H](O)[C@H]1O` (stereo not given in full) [ACARBOSE] has a pIC50 [3] of 3.78.
With `COc1cc2oc(-c3ccc(O)cc3O)cc2c(OC)c1CC=C(C)C` the inhibition (Homo sapiens) was > 40%, the inhibition [1] was > 60% and the pIC50 [4] was 5.48. For the same compound, the viability at 10 µM [2] was 80 to 110%.
With `C=C(C)[C@@H](O)Cc1c(O)ccc([C@@H]2COc3cc(OC)c(CC=C(C)C)c(OC)c3C2)c1O` the inhibition (Homo sapiens) was > 40%, the inhibition [1] was > 60% and the pIC50 [4] was 5.17. The viability at 10 µM [2] was 80 to 110%.
For `COc1cc2c(c(O)c1CC=C(C)C)C(=O)[C@H](c1ccc(O)cc1)CO2`, the inhibition (Homo sapiens) was > 40%, the Activity (HepG2 [5]) was 95% and the inhibition [1] was > 60%. It also gave a viability at 10 µM [2] of 80 to 110%.
With `CN(C)C(=N)NC(=N)N` the Activity (HepG2 [6]) was “Active”.
For `CC(C)=CCc1cc(-c2coc3cc(O)cc(O)c3c2=O)ccc1O`, the inhibition (Homo sapiens) was 34.2%.
For `COc1cc(O)c2c(=O)c(OC)c(-c3ccc(O)cc3)oc2c1` [KUMATAKENIN], the inhibition (Homo sapiens) was > 40%, the inhibition [1] was > 60% and the viability at 10 µM [2] was 80 to 110%.
For `COc1c(CC=C(C)C)c(O)cc2c1[C@@H]1Oc3cc4c(cc3[C@@H]1CO2)C=CC(C)(C)O4`, the inhibition (Homo sapiens) was > 40%, the inhibition [1] was > 60% and the pIC50 [4] was 5.32. The viability at 10 µM [2] was 80 to 110%.
For `CC(C)=CCc1cc([C@@H]2CC(=O)c3c(O)cc(O)c(CC=C(C)C)c3O2)ccc1O` [LESPEDEZAFLAVANONE B], the inhibition (Homo sapiens) was > 40%, the inhibition [1] was > 60% and the pIC50 [4] was 5.68. It also gave a viability at 10 µM [2] of 80 to 110%.
With `COc1ccc([C@@H]2COc3cc(O)ccc3C2)c(O)c1` the inhibition (Homo sapiens) was > 40%, the inhibition [1] was > 60% and the viability at 10 µM [2] was 80 to 110%.
Work on `CC(C)=CCc1cc(-c2oc3cc(O)c(CC=C(C)C)c(O)c3c(=O)c2O)ccc1O` yielded a pIC50 [3] of 5.49.
With `COc1c(CC=C(C)C)c(O)cc2c1-c1oc3cc(O)ccc3c1CO2` the inhibition (Homo sapiens) was > 40%, the Activity (HepG2 [5]) was >80% and the inhibition [1] was > 60%. The pIC50 [3] was 6.52, the pIC50 [4] was 5.08 and the viability at 10 µM [2] was 80 to 110%.
With `CC(C)=CCc1c(O)cc2oc(-c3ccc(O)cc3)c(O)c(=O)c2c1O` [LICOFLAVONOL] the inhibition (Homo sapiens) was > 40%, the inhibition [1] was > 60% and the viability at 10 µM [2] was 80 to 110%.
`CC(C)=CCc1c(O)ccc(-c2coc3c(CC=C(C)C)c(O)cc(O)c3c2=O)c1O` gave a pIC50 [4] of 5.15.
In the case of `CC(C)=CCc1cc([C@@H]2CC(=O)c3c(O)cc(O)cc3O2)ccc1O`, the inhibition (Homo sapiens) was > 40%, the inhibition [1] was > 60% and the viability at 10 µM [2] was 80 to 110%.
In the case of `O=c1c(-c2ccc(O)cc2)coc2cc(O)cc(O)c12` [GENISTEIN], the inhibition (Homo sapiens) was 58.4%, the inhibition [1] was > 60% and the viability at 10 µM [2] was 80 to 110%.
Work on `CC(C)=CCc1cc(-c2coc3cc(O)c(CC=C(C)C)c(O)c3c2=O)cc(O)c1O` yielded a pIC50 [4] of 5.11.
Work on `Oc1ccc2c(c1)OC[C@@H](c1cc3c(cc1O)OCO3)C2` yielded a pIC50 [3] of 5.42.
In the case of `COc1cc2oc(=O)c3c4ccc(O)cc4oc3c2c(OC)c1CC=C(C)C`, the inhibition (Homo sapiens) was > 40%, the inhibition [1] was > 60% and the viability at 10 µM [2] was 80 to 110%.
In the case of `CC(C)=CCc1c(O)cc2c(c1O)C(=O)[C@@](O)(c1ccc(O)c3c1OC(C)(C)C=C3)CO2`, the inhibition (Homo sapiens) was > 40%, the inhibition [1] was > 60% and the pIC50 [3] was 4.70. It also gave a pIC50 [4] of 5.23 and a viability at 10 µM [2] of 80 to 110%.
With `COc1c(CC=C(C)C)c(O)cc2oc(-c3ccc(O)cc3O)cc12` [LICOCOUMARONE] the inhibition (Homo sapiens) was 61.2%, the Activity (HepG2 [5]) was >80% and the inhibition [1] was > 60%. For the same compound, the viability at 10 µM [2] was 80 to 110%.
With `COc1cc2c(c(O)c1CC=C(C)C)C(=O)C(c1ccc(O)cc1O)CO2` (stereo not given) the inhibition (Homo sapiens) was > 40%, the Activity (HepG2 [5]) was >80% and the inhibition [1] was > 60%. The viability at 10 µM [2] was 80 to 110%.
For `COc1cc2occ(-c3ccc(O)cc3O)c(=O)c2c(O)c1CC=C(C)C`, the pIC50 [4] was 5.28.
For `CC(C)=CCc1c(O)ccc(-c2coc3cc(O)c(CC=C(C)C)c(O)c3c2=O)c1O`, the inhibition (Homo sapiens) was > 40%, the inhibition [1] was > 60% and the pIC50 [4] was 5.12. The viability at 10 µM [2] was 80 to 110%.
In the case of `O=c1c(-c2ccc(O)cc2)coc2cc(O)ccc12` [DAIDZEIN], the inhibition (Homo sapiens) was > 40%, the Activity (HepG2 [5]) was >80% and the inhibition [1] was > 60%. It also gave a viability at 10 µM [2] of 80 to 110%.
For `COc1ccc([C@@H]2COc3cc(O)c(CC=C(C)C)cc3C2)c(O)c1`, the inhibition (Homo sapiens) was > 40%, the inhibition [1] was > 60% and the viability at 10 µM [2] was 80 to 110%.
With `COc1cc2c(c(OC)c1CC=C(C)C)C[C@H](c1ccc(O)c3c1OC(C)(C)C=C3)CO2` the pIC50 [4] was 5.14.
For `COc1ccc(C2COc3c(CC=C(C)C)c(O)cc(O)c3C2=O)c(O)c1` (stereo not given), the inhibition (Homo sapiens) was > 40%, the inhibition [1] was > 60% and the viability at 10 µM [2] was 80 to 110%.
